How the values were obtained:
[1] = Cytotoxicity against human MRC5 cells incubated for 72 hrs by alamar blue staining based assay; assay type: toxicity, cell-based
Trypanosoma brucei [2] = experiment: Antitrypanosomal activity against bloodstream-stage Trypanosoma brucei measured after 72 hrs by alamar blue assay; assay type: functional, organism-based
Leishmania major = experiment: Antileishmanial activity against Leishmania major promastigotes MHOM/IL/80/Friedlin measured after 72 hrs by MTT assay; assay type: functional, organism-based
[3] = Selectivity index, ratio of IC50 for human MRC5 to IC50 for Trypanosoma brucei measured after 72 hrs by alamar blue assay; assay type: toxicity; conditions: MRC5 cells, read-out: Ratio IC50
[4] = Selectivity index, ratio of IC50 for human MRC5 to IC50 for Leishmania major measured after 72 hrs by MTT assay; assay type: toxicity; conditions: MRC5 cells, read-out: Ratio IC50
Trypanosoma brucei [5] = experiment: Trypanocidal activity against bloodstream-stage Trypanosoma brucei measured after 72 hrs by CellTiter-Glo luminescent assay; assay type: functional, organism-based
[6] = Selectivity index, ratio of IC50 for human MRC5 to IC50 for Trypanosoma brucei measured after 72 hrs by CellTiter-Glo luminescent assay; assay type: toxicity; conditions: MRC5 cells, read-out: Ratio IC50
Quadruplex DNA [7] = experiment: Stabilization of 22AG G4 DNA (unknown origin) assessed as change in melting temperature at 1 uM by FRET assay; assay type: nucleic-acid assay
Quadruplex DNA [8] = experiment: Stabilization of Trypanosoma brucei ERB1 G4 DNA assessed as change in melting temperature at 1 uM by FRET assay; assay type: nucleic-acid assay
Quadruplex DNA [9] = experiment: Stabilization of 22AG G4 DNA (unknown origin) assessed as change in melting temperature at 265 nm wavelength at 5 uM by CD spectroscopy; assay type: nucleic-acid assay
Quadruplex DNA [10] = experiment: Stabilization of 22AG G4 DNA (unknown origin) assessed as change in melting temperature at 292 nm wavelength at 5 uM by CD spectroscopy; assay type: nucleic-acid assay
Quadruplex DNA [11] = experiment: Stabilization of Trypanosoma brucei ERB1 G4 DNA assessed as change in melting temperature at 265 nm wavelength at 5 uM by CD spectroscopy; assay type: nucleic-acid assay
Quadruplex DNA [12] = experiment: Stabilization of Trypanosoma brucei ERB1 G4 DNA assessed as change in melting temperature at 292 nm wavelength at 5 uM by CD spectroscopy; assay type: nucleic-acid assay
[13] = Drug uptake in Trypanosoma brucei at 4 to 37 degreeC at 5 uM after 30 to 120 mins by flow cytometry analysis; assay type: ADME; conditions: time 30-120 min
Trypanosoma brucei [14] = experiment: Antitrypanosomal activity against Trypanosoma brucei; assay type: functional, organism-based
[15] = Drug uptake in human MRC5 cells at 4 to 37 degreeC at 5 uM after 30 to 120 mins by flow cytometry analysis; assay type: ADME, cell-based; conditions: mrc5, 5 µM, time 30-120 min
[16] = Drug localization in human MRC5 cells nucleus at 37 degreeC at 5 uM after 30 mins by DAPI staining based fluorescence microscopy analysis; assay type: ADME, subcellular; conditions: mrc5, 0.5 h
[17] = Drug localization in Trypanosoma brucei nucleus at 37 degreeC at 5 uM after 30 mins by DAPI staining based fluorescence microscopy analysis; assay type: ADME, subcellular; conditions: 0.5 h
[18] = Drug localization in human MRC5 cells cytoplasm at 37 degreeC at 5 uM after 30 mins by DAPI staining based fluorescence microscopy analysis; assay type: ADME, subcellular; conditions: mrc5, 0.5 h
[19] = Drug localization in Trypanosoma brucei kinetoplast at 37 degreeC at 5 uM after 30 mins by DAPI staining based fluorescence microscopy analysis; assay type: ADME, subcellular; conditions: 0.5 h
[20] = Drug localization in Trypanosoma brucei at 5 uM after 120 mins by DAPI staining based fluorescence microscopy analysis; assay type: ADME; conditions: 2 h

Structure (SMILES) | IC50 at 72 h [1] [µM] | IC50 (Trypanosoma brucei [2]) [nM] | IC50 (Leishmania major) [µM] | selectivity ratio at 72 h [3] | selectivity ratio at 72 h [4] | ΔTm (Quadruplex DNA [7]) [°C] | ΔTm (Quadruplex DNA [8]) [°C] | also measured
O=c1c2ccc3c(=O)n(CCOCCO)c(=O)c4c5[nH]c6ccccc6[nH]c5c(c(=O)n1CCOCCO)c2c34 | 1.8 | 290 | > 100 | 6.2 | < 0.018 | -2.2 | 2.1 | IC50 (Trypanosoma brucei [5]): 130 nM; selectivity ratio at 72 h [6]: 13.8
CN(C)CCCN1C(=O)c2ccc3c4c(c(NCc5cn([C@@H]6O[C@H](CO)[C@@H](O)[C@H](O)[C@H]6O)nn5)cc(c24)C1=O)C(=O)N(CCCN(C)C)C3=O | – | – | – | 47.9 | 4.7 | 10 | 11 | –
O=C1c2cc(NCCOCCO)c3c4c(cc(NCCOCCO)c(c24)C(=O)N1CCOCCO)C(=O)N(CCOCCO)C3=O | > 100 | 42700 | > 100 | > 2.3 | – | 0.3 | 3.5 | –
CN(C)CCCNc1cc2c3c(c(N(C)C)cc4c3c1C(=O)N(CCCN(C)C)C4=O)C(=O)N(CCCN(C)C)C2=O | 7.7 | 21 | 2.96 | 367 | 2.6 | 1.9 | 3.6 | ΔTm (Quadruplex DNA [9]): 8.9 °C; ΔTm (Quadruplex DNA [10]): -1.4 °C; ΔTm (Quadruplex DNA [11]): 2.4 °C; ΔTm (Quadruplex DNA [12]): 2.7 °C; Drug uptake [13]: 0%
N=C(N)c1ccc(OCCCCCOc2ccc(C(=N)N)cc2)cc1 [PENTAMIDINE] | – | – | – | – | – | – | – | IC50 (Trypanosoma brucei [14]): 0.2 nM
CN(C)CCCN1C(=O)c2ccc3c4c(c(NCc5cn(CCO[C@@H]6O[C@H](CO)[C@@H](O)[C@H](O)[C@H]6O)nn5)cc(c24)C1=O)C(=O)N(CCCN(C)C)C3=O | – | – | – | 41.8 | 1.3 | 2.7 | 8.6 | –
CN(C)CCCNc1cc2c3c(c(NCCCN(C)C)cc4c3c1C(=O)N(CCCN(C)C)C4=O)C(=O)N(CCCN(C)C)C2=O | 2.1 | 54 | 11.8 | 38.9 | 0.18 | > 30 | > 30 | –
CCCNc1cc2c3c(ccc4c3c1C(=O)N(CCCN(C)C)C4=O)C(=O)N(CCCN(C)C)C2=O | – | – | – | 40 | 10.6 | > 30 | 12 | –
CN(C)CCCN1C(=O)c2ccc3c4c(c(NCCCO)cc(c24)C1=O)C(=O)N(CCCN(C)C)C3=O | 5 | 57 | 2.49 | 87.7 | 2 | 5 | 12 | –
CN(C)CCCN1C(=O)c2ccc3c4c(c(N5CCCCC5)cc(c24)C1=O)C(=O)N(CCCN(C)C)C3=O | 2.6 | 32 | 0.17 | 81.3 | 15.3 | 2.3 | 7.4 | –
O=C1c2ccc3c4c(c(NCCOCCO)cc(c24)C(=O)N1CCOCCO)C(=O)N(CCOCCO)C3=O | > 100 | 9500 | 14.3 | > 10.5 | > 6.98 | -1.4 | 2.9 | –
CN(C)CCCNc1cc2c3c(ccc4c3c1C(=O)N(CCCN(C)C)C4=O)C(=O)N(CCCN(C)C)C2=O | > 100 | 21500 | > 100 | > 4.6 | – | 9.6 | 19 | –
O=C1c2ccc3c4c(ccc(c24)C(=O)N1CCOCCO)C(=O)N(CCOCCO)C3=O | 14.5 | 2500 | 3.76 | 5.8 | 3.85 | -2.2 | 1.3 | –
CN(C)CCCNc1cc2c3c(c(NCCCCCCCNc4cc5c6c(ccc7c6c4C(=O)N(CCCN(C)C)C7=O)C(=O)N(CCCN(C)C)C5=O)cc4c3c1C(=O)N(CCCN(C)C)C4=O)C(=O)N(CCCN(C)C)C2=O | 66.3 | 8500 | > 100 | 7.8 | < 0.66 | 18.3 | > 30 | –
CN(C)CCCN1C(=O)c2ccc3c4c(c(NCCCCCCCNc5cc6c7c(ccc8c7c5C(=O)N(CCCN(C)C)C8=O)C(=O)N(CCCN(C)C)C6=O)cc(c24)C1=O)C(=O)N(CCCN(C)C)C3=O | 0.062 | 15 | 2.59 | 4 | 0.002 | > 30 | 15 | –
CN(C)CCCn1c(=O)c2ccc3c(=O)n(CCCN(C)C)c(=O)c4c5[nH]c6ccccc6[nH]c5c(c1=O)c2c34 | 0.023 | 0.26 | 0.002 | 88 | 11.5 | 8.5 | > 30 | IC50 (Trypanosoma brucei [5]): 0.07 nM; selectivity ratio at 72 h [6]: 328; ΔTm (Quadruplex DNA [9]): 6.7 °C; ΔTm (Quadruplex DNA [10]): 3 °C; ΔTm (Quadruplex DNA [11]): 25.9 °C; ΔTm (Quadruplex DNA [12]): 23 °C; Drug uptake [15]: Active; Drug uptake [13]: 20%
COCCOCCNc1cc2c3c(ccc4c3c1C(=O)N(CCCN(C)C)C4=O)C(=O)N(CCCN(C)C)C2=O | 5 | 61 | 4.42 | 80.6 | 1.1 | 4.4 | 9.7 | –
CCCNC(=O)c1ccc2[nH]c3c([nH]c2c1)c1c(=O)n(CCCN(C)C)c(=O)c2ccc4c(=O)n(CCCN(C)C)c(=O)c3c4c21 | 0.038 | 0.09 | 0.31 | 422 | 0.12 | > 30 | > 30 | IC50 (Trypanosoma brucei [5]): 0.011 nM; selectivity ratio at 72 h [6]: 3450; ΔTm (Quadruplex DNA [9]): > 30 °C; ΔTm (Quadruplex DNA [10]): 14.8 °C; ΔTm (Quadruplex DNA [11]): 22.7 °C; ΔTm (Quadruplex DNA [12]): 26 °C; Drug uptake [15]: Active; Drug uptake [13]: 20%; Drug uptake [16]: Active; Drug uptake [17]: Active; Drug uptake [18]: Not Active; Drug uptake [19]: Not Active; Drug uptake [20]: Active
CN(C)CCCN1C(=O)c2cc(NCCOCCOCCNc3cc4c5c(c(Br)cc6c5c3C(=O)N(CCCCCC(=O)O)C6=O)C(=O)N(CCCCCC(=O)O)C4=O)c3c4c(cc(Br)c(c24)C1=O)C(=O)N(CCCN(C)C)C3=O | 14 | 550 | > 100 | 25 | < 0.14 | 3.8 | 7.1 | ΔTm (Quadruplex DNA [9]): 4.9 °C; ΔTm (Quadruplex DNA [10]): -2.5 °C; ΔTm (Quadruplex DNA [11]): 5.2 °C; ΔTm (Quadruplex DNA [12]): 3.2 °C

Source: ChEMBL document CHEMBL5500418, “Structure-Activity Study on Substituted, Core-Extended, and Dyad Naphthalene Diimide G-Quadruplex Ligands Leading to Potent Antitrypanosomal Agents” (J Med Chem, 2024)
